Measurements from patent US20240197761A1, “FUCOSYLATION AND IMMUNE MODULATION IN CANCER” (H. LEE MOFFITT CANCER CENTER AND RESEARCH INSTITUTE, INC., priority 2021, published 2024).

Tests used:
[1] = system: HLA-DRB1 in WM793 and 1205Lu cells; assay: Cell surface fucosylation and HLA-DRB1 (flow cytometry), HLA-DRB1 mRNA (qRT-PCR) and protein (IB) in melanoma cells; format: cell-based, human; conditions: 250 μM, 72 h
From the text: FIGS. 18A-18F show N-linked fucosylation of HLA-DRB1 at N48 regulates its cell surface localization and is required for tumor suppression and increased TIL abundance. (a) (upper) Amino acid sequence alignments showing conservation of predicted N- and O-linked fucosylation sites in human HLA-DRB1 (N48 and T129) and mouse H2EB1 (N46 and T147). Structural modeling of the HLA-DRB1:HLA-DM (lower left) and CD4:HLA-DRB1:TCR (lower right) complexes. Potential glycosylation sites, N48 and T129, of HLA-DR1 beta chain are shown as sticks. CD4 (cyan), HLA-DRB1 (yellow), antigen peptide (magenta), and TCR (green)(lower right). (b) HLA-DRB1 peptide fragment identified by nano-LC/MS to be fucosylated on N48, with predicted HexNAc(4)Hex(3)Fuc(1) glycan structure shown above. (c) Lectin pull down (LPD) and IB analyses of EV and V5-tagged wild-type HLA-DRB1 (WT)-, HLA-DRB1 N48G (N48G)-, and HLA-DRB1 T129A (T129A)-expressing WM793 cells. (d) DMSO- or fucosyltransferase inhibitor (FUTi)-treated WM793 cells immunofluorescently stained for endogenous HLA-DRB1, KDEL (ER marker), and DAPI (20× magnification). (e) Flow cytometric analysis for relative cell surface fucosylation (upper) and cell surface HLA-DRB1 (upper middle), qRT-PCR analysis of relative HLA-DRB1 mRNA levels (lower middle), and IB analysis of HLA-DRB1 protein levels (lower) in WM793 and 1205Lu cells treated with DMSO (D), 250 μM FUTi (i), or 250 μM L-fuc (LF). (f) Volumetric growth curves for shNT (non-targeting shRNA)+EV (control SW1 tumors)(upper left) or shEB1 tumors reconstituted with EV (upper right), EB1 WT (lower left), or EB1 N46G (lower right) in C3H/HeN mice. Control (grey) or L-fucose supplemented water (red, 100 mM; ▾=initiated supplementation) was provided ad libitum. The tumor growth curves are means±SEM from ≥7 mice per group. *=p<0.05.
FIGS. 19A and 19B show nano-LC/MS spectral identification of fucosylated HLA-DRB1 peptide; and the effects of modulating fucosylation on HLA-DRB1 localization, total protein, and mRNA levels (a) nano-LC/MS/MS spectra showing fucosylated HLA-DRB1 peptide (arrow). (b) Flow cytometric analysis for relative cell surface fucosylation (upper) and cell surface HLA-DRB1 levels (upper middle), qRT-PCR analysis of relative HLA-DRB1 mRNA levels (lower middle), and IB analysis of HLA-DRB1 protein levels (lower) in indicated melanoma cell lines treated with DMSO (D), 250 μM FUTi (i), or 250 μM L-fuc (LF). *=p<0.05.
HLA-DRB1, and PD-L1: Indicated cells were treated for 72 h with DMSO, 250 μM fucosyltransferase inhibitor (FUTi) (Millipore Sigma (St. Louis, MO)), or 250 μM of L-fucose (Biosynth (Oak Terrace, IL)). After 72 h, cells were stained with 0.1 μM PKH26 (Millipore Sigma (St. Louis, MO)) prior to fixation in 4% formaldehyde solution. The cells were stained with anti-HLA-DRB1 and fluorescein AAL, or anti-human or anti-mouse PD-L1 overnight. The following day the cells were washed 3 times prior to adding AlexaFluor 594 donkey anti-rabbit. Cells were washed 3 times and then subject to flow cytometric analyses using a FACSCalibur (BD Biosciences (San Jose, CA)). Samples were analyzed using FlowJo analysis software (BD Biosciences (San Jose, CA)). Median values of DRB1 and AAL were normalized to PKH26 values and statistical analysis was performed using GraphPad Prism.
Cells were lysed on ice in RIPA lysis buffer (25 mM Tris-HCl pH 7.6, 150 mM NaCl, 5 mM EDTA, 1% NP-40 or 1% Triton X-100, 1% sodium deoxycholate, 0.1% SDS in diH20+protease and phosphatase inhibitors (ThermoFisher Scientific (Waltham, MA)), briefly sonicated, pelleted, and the resulting lysates were normalized by protein concentration using DC assay (BioRad Laboratories, (Hercules, CA)). The indicated samples were subjected to (12%) SDS-PAGE and immunoblot analysis using the indicated antibodies. Immunoblot imaging and analysis was performed using either an Odyssey FC scanner and ImageStudio (LiCor Biosciences, Lincoln, NE) or film. […]

[2] = system: PD-L1 on WM793, SW1 and SM1 cells; assay: Cell surface PD-L1 (flow cytometry); format: cell-based; conditions: human or mouse melanoma cells, 250 μM
From the text: FIGS. 22A-221 show Schematic of L-PLA staining and verification of fucosylated HLA-DRB1 staining, which is weakly associated with tumor peripheral CD4+T cells; and the effects of L-fucose on tumor PD-L1 expression (a) Schematic of lectin-mediated proximity ligation analysis (L-PLA) using fucosylated HLA-DRB1 (fuco-HLA-DRB1) as an example. We stained for (i) HLA-DRB1 using […]-HLA-DRB1 followed by (+) oligo-conjugated PLA secondary and (ii) fucosylated glycan using biotinylated (“B”) AAL lectin followed by D-biotin followed by (−) oligo-conjugated PLA secondary. Ligated PLA oligos were subjected to rolling circle amplification PCR (RCA PCR), giving rise to fluorescent punctae. […] Single melanoma marker, AAL-FITC, and HLA-DRB1 channels are shown in white for clearer visualization. […] (d) FFPE melanoma tissues were subjected to L-PLA HLA-DRB1 staining ±500 mM L-fucose wash and subsequent staining with melanoma marker (MART1+SI10 cocktail), and DAPI. Single melanoma marker and fuco-HLA-DRB1 channels are shown in white for clear visualization. […]
HLA-DRB1, and PD-L1: Indicated cells were treated for 72 h with DMSO, 250 μM fucosyltransferase inhibitor (FUTi) (Millipore Sigma (St. Louis, MO)), or 250 μM of L-fucose (Biosynth (Oak Terrace, IL)). […] Samples were analyzed using FlowJo analysis software (BD Biosciences (San Jose, CA)). […]

Structure (SMILES): CC(=O)OC1O[C@@H](C)[C@@H](OC(C)=O)[C@@H](OC(C)=O)[C@@H]1F (stereo partly shown) [FUTi, 2F-peracteyl-fucose, reference compound]
- HLA-DRB1 mRNA and protein levels [1]: remained unchanged
- cell surface HLA-DRB1 [1]: decreased
- cell surface fucosylation [1]: decreased

Structure (SMILES): C[C@H](O)[C@@H](O)[C@@H](O)[C@H](O)C=O [L-fucose]
- cell surface levels of PD-L1 [2]: does not alter
- HLA-DRB1 mRNA and protein levels [1]: remained unchanged
- cell surface HLA-DRB1 [1]: increased
- cell surface fucosylation [1]: increased
